Laboratory results: the NIST ThermoML archive (doi:10.1021/je700191v)
Numbers after ± are expanded uncertainties.

Experiment: mn = molality of the nth substance listed, in mol/kg
Details: 101 kPa, Liquid

CC1(C)S[C@@H]2[C@H](NC(=O)Cc3ccccc3)C(=O)N2[C@H]1C(=O)[O-].[K+] + O
mass density (293.15 K, m1 = 0.01891): 1000.62 ± 0.35 kg/m3 | mass density (293.15 K, m1 = 0.03922): 1003.15 ± 0.36 kg/m3 | mass density (293.15 K, m1 = 0.05967): 1005.7 ± 0.37 kg/m3 | mass density (293.15 K, m1 = 0.08039): 1008.26 ± 0.38 kg/m3 | mass density (293.15 K, m1 = 0.1008): 1010.74 ± 0.39 kg/m3 | mass density (293.15 K, m1 = 0.1217): 1013.28 ± 0.4 kg/m3 | mass density (298.15 K, m1 = 0.01891): 999.45 ± 0.35 kg/m3 | mass density (298.15 K, m1 = 0.03922): 1001.98 ± 0.35 kg/m3 | mass density (298.15 K, m1 = 0.05967): 1004.5 ± 0.36 kg/m3 | mass density (298.15 K, m1 = 0.08039): 1007.04 ± 0.38 kg/m3 | mass density (298.15 K, m1 = 0.1008): 1009.5 ± 0.39 kg/m3 | mass density (298.15 K, m1 = 0.1217): 1011.99 ± 0.39 kg/m3 | mass density (303.15 K, m1 = 0.01952): 998.081 ± 0.35 kg/m3 | mass density (303.15 K, m1 = 0.03888): 1000.47 ± 0.35 kg/m3 | mass density (303.15 K, m1 = 0.05831): 1002.85 ± 0.36 kg/m3 | mass density (303.15 K, m1 = 0.07995): 1005.48 ± 0.37 kg/m3 | mass density (303.15 K, m1 = 0.1): 1007.88 ± 0.38 kg/m3 | mass density (303.15 K, m1 = 0.1193): 1010.19 ± 0.39 kg/m3 | mass density (308.15 K, m1 = 0.01952): 996.399 ± 0.36 kg/m3 | mass density (308.15 K, m1 = 0.03888): 998.73 ± 0.35 kg/m3 | mass density (308.15 K, m1 = 0.05831): 1001.06 ± 0.35 kg/m3 | mass density (308.15 K, m1 = 0.07995): 1003.59 ± 0.36 kg/m3 | mass density (308.15 K, m1 = 0.1): 1006.02 ± 0.37 kg/m3 | mass density (308.15 K, m1 = 0.1193): 1008.28 ± 0.38 kg/m3
